From paper PMC5270475, “Structural Characterization and Ligand/Inhibitor Identification Provide Functional Insights into the Mycobacterium tuberculosis Cytochrome P450 CYP126A1” (The Journal of Biological Chemistry, 2016)

Target: T1, CYP126A1 (Mycobacterium tuberculosis, UniProt P9WPN9)
T1 construct: gene cyp126
Experiment: UV-visible absorbance titration (heme Soret shift)
Format: binding
Conditions: read-out: Kd

T1 sequence (P9WPN9 whole entry): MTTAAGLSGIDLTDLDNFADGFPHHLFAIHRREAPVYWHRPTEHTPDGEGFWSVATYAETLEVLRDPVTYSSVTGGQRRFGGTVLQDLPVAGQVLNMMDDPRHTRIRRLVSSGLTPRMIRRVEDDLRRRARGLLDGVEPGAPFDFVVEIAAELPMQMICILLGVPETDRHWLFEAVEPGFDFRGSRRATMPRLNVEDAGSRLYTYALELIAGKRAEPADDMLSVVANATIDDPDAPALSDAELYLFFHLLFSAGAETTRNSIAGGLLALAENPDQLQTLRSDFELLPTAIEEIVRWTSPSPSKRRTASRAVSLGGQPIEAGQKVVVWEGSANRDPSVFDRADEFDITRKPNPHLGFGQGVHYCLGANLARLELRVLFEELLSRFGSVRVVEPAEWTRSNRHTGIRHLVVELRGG

For COc1ccc(-c2noc(CN(C(=O)Cc3ccc([N+](=O)[O-])cc3)C(C)C)n2)cc1 [compound 1, N-isopropyl-N-((3-(4-methoxyphenyl)-1,2,4-oxadiazol-5-yl)methyl)-2-(4-nitrophenyl)acetamide], the Kd was 18.3 ± 1.3 µM.
In the case of O=C1CCCC2Oc3c(cc(NS(=O)(=O)c4ccc([N+](=O)[O-])cc4)c4ccccc34)C12 (stereo not drawn) [compound 2, Compound 2], the Kd is reported as 2.85 ± 0.15 µM.
Cc1ccc(NC(=O)c2cccc3nc4ccccc4nc23)cc1 [compound 3, Compound 3] was tested, and the Kd was 56.1 ± 2.2 µM.
With O=C1CC(N2CCN(Cc3ccc4c(c3)OCO4)CC2)C(=O)N1Cc1ccc(Cl)cc1 (stereo not drawn) [compound 4, 3-(4-(benzo[d][1,3]dioxol-5-ylmethyl)piperazin-1-yl)-1-(4-chlorobenzyl)pyrrolidine-2,5-dione] the Kd was 65.2 ± 6.6 µM.
Compound Cc1cccc(CSc2ncc(Cl)c(C(=O)Nc3nnc(C)s3)n2)c1 [compound 5, Compound 5] has a Kd of 6.15 ± 0.31 µM.
Work on O=C(Nc1nc2ccc(F)cc2s1)c1nc(SCc2ccccc2F)ncc1Cl [compound 6, Compound 6] yielded a Kd of 25.3 ± 0.5 µM.
